Test results as given in US20260008775A1, “AZOLE MODULATORS OF CHOLESTEROL BIOSYNTHESIS AND THEIR USE FOR PROMOTING REMYELINATION” (GENENTECH, INC., priority 2022, published 2026).

Assays:
EpiSC-derived OPCs = assay: In vitro phenotypic screening of OPCs, MBP high-content imaging (percentage of oligodendrocytes); format: cell-based, mouse; conditions: Mus musculus, 72 h, 3 days, MBP stain, dose-response 0.5 nM to 1000 nM; read-out: OPC EC50
Outline: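 EC50 was fitted by Hill equation to the MBP-positive oligodendrocyte percentage from imaging of fixed, MBP- and DAPI-stained cells. Treatment lasted 3 days at 37 °C, final doses 0.5–1000 nM over 8 points, in growth factor-free N2B27. Cells were EpiSC-derived OPCs, tested in at least two independent platings.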

[1] = biological target: human emopamil binding protein and human 7-dehydrocholesterol reductase (hEBP-DHCR7) (Homo sapiens (Human), UniProt Q15125); assay: hEBP-DHCR7 radioligand binding assay (filter binding, membranes of co-expressing HEK293 cells); conditions: competition with [3H] radioligand, 8 doses 0.06 to 5000 nM, Ki calculated from IC50
human emopamil binding protein and human 7-dehydrocholesterol reductase (hEBP-DHCR7), sequence (Q15125 whole entry): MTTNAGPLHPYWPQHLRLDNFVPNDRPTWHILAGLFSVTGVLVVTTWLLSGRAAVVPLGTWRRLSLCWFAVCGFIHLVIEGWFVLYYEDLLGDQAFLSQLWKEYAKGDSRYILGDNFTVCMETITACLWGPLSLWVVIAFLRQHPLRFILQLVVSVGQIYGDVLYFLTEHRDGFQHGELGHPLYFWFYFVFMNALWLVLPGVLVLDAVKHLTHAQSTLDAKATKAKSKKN
Outline: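 Compound, either single dose 1 μM or eight 5-fold dilutions from 0.06 to 5000 nM, competed with a [3H]-labelled ligand added at 25 nM for binding to co-expressing HEK293 membranes. IC50 came from nonlinear regression, with full block and DMSO as controls, then Cheng–Prusoff conversion to Ki.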

[2] = system: zymostenol accumulation (EBP) in EpiSC-derived OPCs; assay: GC/MS-based sterol profiling, zymostenol accumulation in EpiSC-derived OPCs; format: cell-based, mouse; conditions: Mus musculus, 24 h, EpiSC-derived OPCs, 24 hr, 8 doses from 0.15 nM to 333 nM; read-out: Mouse Zymostenol GCMS EC50
Outline: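 Zymostenol level is expressed relative to that after 24 h with 100 nM positive-control reference, measured by full-scan GC/MS (m/z 458) with cholesterol-d7 internal standard after BSTFA derivatisation. Cells were EpiSC-derived OPCs, 100,000/well in N2B27 without growth factors, treated 24 h, from two or more independent platings.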

Compound | EC50 (EpiSC-derived OPCs) | Ki [1] | EC50 [2]
CC(C)n1nc(-c2cccc(C(F)(F)F)c2)nc1[C@@H]1CC[C@H](N2CCOCC2)C1 (single isomer, unassigned) [22*] | 6.73 nM | 10.9 nM | 1.33 nM
CC[C@H]1CN([C@@H]2CC[C@H](c3nc(-c4cnc(C(F)(F)F)nc4)nn3C(C)C)C2)CCO1 (single isomer, unassigned) [Compound 110*] | 13.9 nM | 14.8 nM | 2.48 nM
CC(C)n1nc(-c2ccc(C(F)(F)F)c(F)c2)nc1[C@H]1CC[C@@H](N2CCOCC2)C1 (single isomer, unassigned) [Compound 111*] | 6.15 nM | 45 nM | 1.64 nM
CC(C)n1nc(-c2ccc(C(F)(F)F)nc2)nc1[C@@H]1CC[C@H](N2CCCOCC2)C1 [Compound 4, 4-((1S,3R)-3-(1-isopropyl-3-(6-(trifluoromethyl)pyridin-3-yl)-1H-1,2,4-triazol-5-yl)cyclopentyl)-1,4-oxazepane] | 38.7 nM | 8.28 nM | 12.3 nM
CC(C)n1nc(-c2cncc(C(F)(F)F)c2)nc1[C@H]1[C@@H]2C[C@H](N3CCO[C@H](C)C3)C[C@@H]21 [Compound 163, (R)-4-((1R,3r,5S,6R)-6-(1-Isopropyl-3-(5-(trifluoromethyl)pyridin-3-yl)-1H-1,2,4-triazol-5-yl)bicyclo[3.1.0]hexan-3-yl)-2-methylmorpholine] | 32.8 nM | 32.8 nM | 4.36 nM
CC(C)n1nc(-c2cncc(C(F)(F)F)c2)cc1[C@H]1[C@@H]2C[C@H](N3C[C@@H]4C[C@H]3CO4)C[C@@H]21 (single isomer, unassigned) [38*] | 71 nM | 47.6 nM | 9.32 nM

Now from value to compound:

EC50 (EpiSC-derived OPCs) | Ki [1] | EC50 [2] | Compound
61.6 nM | 12.6 nM | 22.7 nM | CC(C)n1nc(-c2cccc(C#N)c2)cc1[C@H]1[C@@H]2C[C@@H](N3CCCOCC3)C[C@@H]21 [Compound 192*, 3-(5-((1R,3s,5S,6r)-3-(1,4-oxazepan-4-yl)bicyclo[3.1.0]hexan-6-yl)-1-isopropyl-1H-pyrazol-3-yl)benzonitrile]
3.32 nM | 9.14 nM | 3.43 nM | CC(C)n1nc(-c2cccc(OC(F)(F)F)c2)cc1[C@H]1[C@@H]2C[C@H](N3CCCOCC3)C[C@@H]21 [Compound 189*, 4-((1R,3r,5S,6r)-6-(1-isopropyl-3-(3-(trifluoromethoxy)phenyl)-1H-pyrazol-5-yl)bicyclo[3.1.0]hexan-3-yl)-1,4-oxazepane]
82.5 nM | 358 nM | 77 nM | CC(C)n1nc(-c2cncc(C(F)(F)F)c2)nc1[C@H]1[C@@H]2C[C@H](N3CCCOCC3)C[C@@H]21 [Compound 51, 4-((1R,3r,5S,6r)-6-(1-Isopropyl-3-(5-(trifluoromethyl)pyridin-3-yl)-1H-1,2,4-triazol-5-yl)bicyclo[3.1.0]hexan-3-yl)-1,4-oxazepane]
523 nM | 771 nM | 255 nM | CC(C)n1nc(-c2cncc(C(F)(F)F)c2)cc1[C@H]1[C@@H]2C[C@@H](N3CCO[C@@H](C)C3)C[C@@H]21 (single isomer, unassigned) [39*]
124 nM | 30.6 nM | 24.5 nM | CC(C)n1nc(-c2ccc(C#N)cc2)cc1[C@H]1[C@@H]2C[C@@H](N3CCCOCC3)C[C@@H]21 [Compound 180*, 4-(5-((1R,3s,5S,6r)-3-(1,4-oxazepan-4-yl)bicyclo[3.1.0]hexan-6-yl)-1-isopropyl-1H-pyrazol-3-yl)benzonitrile]
4.01 nM | 8.2 nM | 2.06 nM | CC(C)n1nc(-c2cccc(OC(F)F)c2)cc1[C@H]1[C@@H]2C[C@H](N3CCCOCC3)C[C@@H]21 (single isomer, unassigned) [Compound 199*]
30.8 nM | 11.7 nM | 4.86 nM | CC(C)n1nc(-c2cncc(C(F)(F)F)n2)cc1[C@H]1[C@@H]2C[C@@H](N3CCOCC3)C[C@@H]21 [Compound 107, 4-((1R,3s,5S,6r)-6-(1-Isopropyl-3-(6-(trifluoromethyl)pyrazin-2-yl)-1H-pyrazol-5-yl)bicyclo[3.1.0]hexan-3-yl)morpholine]
